The record followed here is ChEMBL document CHEMBL1147730, “3D-QSAR studies on cannabinoid CB1 receptor agonists: G-protein activation as biological data” (J Med Chem, 2006).

The target in test [1] is Cannabinoid receptor 1 (Rattus norvegicus) (UniProt P20272). In words: (§1) […] [35S]GTP-gamma-S from rat cerebellar CB1 receptor. As to conditions: Wistar. It counts as functional. A general note: Loss of bound radioactivity is the signal in a displacement assay; it reports binding, not function.
Chain of Cannabinoid receptor 1 (Rattus norvegicus) (P20272 whole entry): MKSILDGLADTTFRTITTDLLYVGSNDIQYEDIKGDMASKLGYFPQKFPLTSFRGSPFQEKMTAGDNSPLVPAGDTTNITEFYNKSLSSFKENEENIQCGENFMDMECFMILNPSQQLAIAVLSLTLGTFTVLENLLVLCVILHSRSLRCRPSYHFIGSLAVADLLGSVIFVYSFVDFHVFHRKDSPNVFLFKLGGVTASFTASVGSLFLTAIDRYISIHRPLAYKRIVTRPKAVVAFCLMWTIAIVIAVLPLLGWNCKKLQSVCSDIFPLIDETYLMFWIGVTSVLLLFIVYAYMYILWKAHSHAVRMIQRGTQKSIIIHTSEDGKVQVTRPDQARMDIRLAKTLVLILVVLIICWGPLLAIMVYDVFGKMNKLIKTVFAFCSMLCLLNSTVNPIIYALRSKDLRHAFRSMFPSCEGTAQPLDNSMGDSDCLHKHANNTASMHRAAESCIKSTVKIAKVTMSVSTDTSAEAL
A further test addresses Cannabinoid receptor 1 (Rattus norvegicus, UniProt P20272). The description is as §1. It counts as functional, Wistar.

Chain of Cannabinoid receptor 1 (P20272 whole entry): as above

As usually defined, the Emax is the maximal effect, on the per cent scale that the assay sets. What is called EC50 is the midpoint of the concentration-response curve. A higher EC50 goes with lower potency in that assay. On to `CCCCCCC(C)(C)/C=C\C/C=C\C/C=C\C/C=C\CCCOC(CO)CO`, for which, in test [1], the Emax was 474%. The compound further gave an EC50 on Cannabinoid receptor 1 of 50.1 µM. On to `CCCCCCC(C)(C)/C=C\C/C=C\C/C=C\C/C=C\CCCC(=O)OC(CO)CO`, for which, in test [1], the Emax was determined as 332%. The half-maximal effective concentration (EC50) on Cannabinoid receptor 1 is 50.1 µM. Consider `CCCCC/C=C\C/C=C\C/C=C\C/C=C\CCCC(=O)NCCCl`, for which, in test [1], the Emax is 326%. On Cannabinoid receptor 1, this compound had a 50% effective concentration (EC50) of 0.316 µM. Compound `CCCCC/C=C\C/C=C\C/C=C\C/C=C\CCCC(=O)C(F)(F)F` [ARACHIDONYL TRIFLUOROMETHYLKETONE] had an Emax in test [1] of 161%. At Cannabinoid receptor 1, this compound gave an EC50 of 25.1 µM. In the case of `CCCCC/C=C\C/C=C\C/C=C\C/C=C\CCCNC(=O)CC`, in test [1], the Emax came to 260%. In addition, at Cannabinoid receptor 1, the EC50 was 2 µM.

In test [1], `CCCCCCC(C)(C)/C=C\C/C=C\C/C=C\C/C=C\CCCCOC(CO)CO` yielded an Emax of 352%. Moreover, the 50% effective concentration (EC50) on Cannabinoid receptor 1 is 39.8 µM.

In test [1], `CCCCC/C=C\C/C=C\C/C=C\C/C=C\CCCNC(=O)CCC` returned an Emax of 210%. On Cannabinoid receptor 1, this compound gave an EC50 of 1.26 µM. Consider `CCCCCc1cc(O)c2c(c1)OC(C)(C)c1ccc(C)cc1-2` [CANNABINOL], for which, in test [1], the Emax is 131%. The compound also showed an EC50 on Cannabinoid receptor 1 of 0.316 µM. Take `CC1=CC[C@@H]2[C@@H](C1)c1c(O)cc(C(C)(C)CCCCBr)cc1OC2(C)C`: the Emax in test [1] is 400%. Moreover, a half-maximal response at Cannabinoid receptor 1 (EC50) required 0.01 µM. On to `CCCCCCC(C)(C)c1ccc([C@@H]2C[C@H](O)CC[C@H]2CCCO)c(O)c1`, for which the Emax in test [1] was 443%. Compound `CCCCC/C=C\C/C=C\C/C=C\C/C=C\CCCC(=O)NC1CC1` yielded a maximal response (Emax) in test [1] of 351%. On Cannabinoid receptor 1, this compound showed an EC50 of 0.398 µM. `CCCCC/C=C\C/C=C\C/C=C\C/C=C\CCCCNC(=O)CCC` registered an Emax in test [1] of 199%. The compound further gave an EC50 at Cannabinoid receptor 1 of 3.16 µM. `CCCCCc1cc(O)c2c(c1)OC(C)(C)[C@@H]1CC=C(C)C[C@@H]21` [DELTA-8-TETRAHYDROCANNABINOL]: the maximal effect (Emax) in test [1] came out at 184%. In test [1], `CCCCCCC(C)(C)/C=C\C/C=C\C/C=C\C/C=C\CCC(=O)OC(CO)CO` came in with an Emax of 382%. Moreover, a half-maximal response on Cannabinoid receptor 1 (EC50) required 50.1 µM.

`CC1=CC[C@@H]2[C@@H](C1)c1c(O)cc(C(C)(C)CCCCC#N)cc1OC2(C)C` showed an Emax in test [1] of 369%. The EC50 on Cannabinoid receptor 1 is 0.01 µM.

Turning to `CCCCCCC(C)(C)c1cc(O)c2c(c1)OC(C)(C)[C@@H]1CC=C(CO)C[C@@H]21`, the Emax in test [1] came to 396%. The 50% effective concentration (EC50) on Cannabinoid receptor 1 was 0.00501 µM. In test [1], `CCCCC/C=C\C/C=C\C/C=C\C/C=C\CCCCOC(=O)[C@H](O)CO` had an Emax of 255%. `CCCCC/C=C\C/C=C\C/C=C\C/C=C\CCCCNC(=O)CC`: the maximal effect (Emax) in test [1] was 213%. On Cannabinoid receptor 1, this compound had an EC50 of 3.16 µM. In test [1], `CCCC(C)(C)c1ccc2c(c1)OC(C)(C)[C@@H]1CC=C(C)C[C@@H]21` displayed an Emax of 158%. Further, the EC50 at Cannabinoid receptor 1 is 2 µM. The compound `CCCCC/C=C\C/C=C\C/C=C\C/C=C\CCCCNC(=O)CCO` yielded an Emax in test [1] of 286%. For the same compound, the midpoint of the response on Cannabinoid receptor 1, the EC50, lay at 7.94 µM. The corresponding values for `CCCCC/C=C\C/C=C\C/C=C\C/C=C\CCCNC(=O)CCO` are 284% and 15.8 µM. `CCCCCc1cc(O)c2c(c1)OC(C)(C)[C@@H]1CCC(C)=C[C@@H]21`: the Emax in test [1] was found to be 159%.
